From PMC11863801 (The Journal of Headache and Pain, 2025)

Target: NaV1.9 (Rattus norvegicus, UniProt O88457)
Test: whole-cell patch clamp of NaV1.9-mediated current
Type: cell-based

Sequence of NaV1.9 (O88457 whole entry): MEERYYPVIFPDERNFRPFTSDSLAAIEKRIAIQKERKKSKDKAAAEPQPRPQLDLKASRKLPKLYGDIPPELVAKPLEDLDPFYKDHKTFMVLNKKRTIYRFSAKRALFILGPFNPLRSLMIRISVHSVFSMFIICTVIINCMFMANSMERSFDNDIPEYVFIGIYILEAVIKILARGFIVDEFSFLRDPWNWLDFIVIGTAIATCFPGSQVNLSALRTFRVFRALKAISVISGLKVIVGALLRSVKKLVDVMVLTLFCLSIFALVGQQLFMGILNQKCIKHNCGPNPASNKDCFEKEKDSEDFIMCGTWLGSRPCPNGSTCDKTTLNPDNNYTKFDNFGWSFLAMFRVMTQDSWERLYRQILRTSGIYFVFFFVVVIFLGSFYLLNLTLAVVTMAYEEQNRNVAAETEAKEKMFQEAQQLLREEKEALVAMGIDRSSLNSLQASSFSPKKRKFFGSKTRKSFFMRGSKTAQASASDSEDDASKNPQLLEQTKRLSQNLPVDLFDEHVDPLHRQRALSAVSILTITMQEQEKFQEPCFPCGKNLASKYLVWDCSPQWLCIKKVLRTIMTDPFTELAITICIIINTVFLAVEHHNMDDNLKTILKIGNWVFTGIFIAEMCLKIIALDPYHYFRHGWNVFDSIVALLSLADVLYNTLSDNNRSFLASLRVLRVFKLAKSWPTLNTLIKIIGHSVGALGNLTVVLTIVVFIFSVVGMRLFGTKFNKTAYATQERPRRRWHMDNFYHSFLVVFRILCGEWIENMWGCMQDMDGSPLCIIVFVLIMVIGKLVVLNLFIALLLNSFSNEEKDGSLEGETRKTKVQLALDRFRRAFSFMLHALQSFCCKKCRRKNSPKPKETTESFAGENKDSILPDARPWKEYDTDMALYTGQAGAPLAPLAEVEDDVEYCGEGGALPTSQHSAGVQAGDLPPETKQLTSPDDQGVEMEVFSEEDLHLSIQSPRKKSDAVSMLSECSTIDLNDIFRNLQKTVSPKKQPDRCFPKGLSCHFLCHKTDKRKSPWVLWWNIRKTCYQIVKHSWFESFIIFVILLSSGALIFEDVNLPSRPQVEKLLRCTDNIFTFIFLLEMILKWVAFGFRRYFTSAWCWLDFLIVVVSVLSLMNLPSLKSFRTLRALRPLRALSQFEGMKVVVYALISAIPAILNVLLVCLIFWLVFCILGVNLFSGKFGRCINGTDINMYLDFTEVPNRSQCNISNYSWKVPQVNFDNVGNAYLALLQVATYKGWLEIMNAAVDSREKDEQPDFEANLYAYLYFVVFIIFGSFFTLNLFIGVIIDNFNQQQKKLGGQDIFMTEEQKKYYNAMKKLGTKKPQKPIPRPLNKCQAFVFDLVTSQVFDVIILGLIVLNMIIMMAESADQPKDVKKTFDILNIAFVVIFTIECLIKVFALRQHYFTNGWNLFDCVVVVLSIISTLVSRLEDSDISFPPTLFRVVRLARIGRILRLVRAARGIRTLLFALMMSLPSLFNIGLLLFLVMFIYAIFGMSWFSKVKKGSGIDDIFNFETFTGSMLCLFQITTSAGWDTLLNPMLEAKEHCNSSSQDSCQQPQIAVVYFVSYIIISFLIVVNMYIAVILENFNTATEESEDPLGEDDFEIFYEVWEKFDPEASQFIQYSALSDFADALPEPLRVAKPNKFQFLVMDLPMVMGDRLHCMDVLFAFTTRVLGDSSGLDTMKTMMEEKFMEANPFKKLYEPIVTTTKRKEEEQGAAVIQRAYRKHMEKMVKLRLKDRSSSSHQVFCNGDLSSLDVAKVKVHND

C[C@]12CC[C@H](O)CC1=CC[C@@H]1[C@@H]2CC[C@]2(C)C(=O)CC[C@@H]12 [DHEA, dehydroepiandrosterone]
IC50: 49.2 µM
